From the supplement of paper PMC11579375

How the values were obtained:
Experiment in all cases: area under the viability dose-response curve (AUC) (AUC (arbitrary units, max 500 = no viability loss)); higher = less sensitive (higher viability)
Details in all cases: exposure time: 120 h; concentration range: 0.1 nM - 10 µM, 6 doses
[1] = test system: 17E (embryonal-type hepatoblastoma organoid)
Method: (§1)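 Patient-derived hepatoblastoma tumor organoids (about 50 organoids per well, 384-well plates, medium with 5% BME) were treated with the PMC pediatric cancer drug library. Each drug was tested in duplicate at 6 concentrations (0.1 nM to 10 µM, 10-fold steps).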

[2] = test system: 22E (embryonal-type hepatoblastoma organoid)
Method: as §1

[3] = test system: 135F2 (fetal-II hepatoblastoma organoid with high liver markers)
Method: as §1

[4] = test system: 17F1 (fetal-I hepatoblastoma organoid with intermediate liver markers)
Method: as §1

[5] = test system: 8F1 (fetal-I hepatoblastoma organoid with intermediate liver markers)
Method: as §1

[6] = test system: 3E (embryonal-type hepatoblastoma organoid)
Method: as §1

[7] = test system: 27F1 (fetal-I hepatoblastoma organoid with intermediate liver markers)
Method: as §1

[8] = test system: 96F1 (fetal-I hepatoblastoma organoid with intermediate liver markers)
Method: as §1

[9] = test system: 13F2 (fetal-II hepatoblastoma organoid with high liver markers)
Method: as §1

[10] = test system: 13E (embryonal-type hepatoblastoma organoid)
Method: as §1

[11] = test system: 10F2 (fetal-II hepatoblastoma organoid with high liver markers)
Method: as §1

Compound	area under the viability dose-response curve [1]	area under the viability dose-response curve [2]	area under the viability dose-response curve [3]	area under the viability dose-response curve [4]	area under the viability dose-response curve [5]	area under the viability dose-response curve [6]	area under the viability dose-response curve [7]	area under the viability dose-response curve [8]	area under the viability dose-response curve [9]	area under the viability dose-response curve [10]	area under the viability dose-response curve [11]
Cc1c(C(=O)Nc2ccc(N3C[C@@H](C)O[C@@H](C)C3)nc2)cccc1-c1ccc(OC(F)(F)F)cc1 [Sonidegib]	466	469	470	477	477	477	> 500	465	470	485	409
Nc1cc(F)ccc1NC(=O)c1ccc(CNC(=O)/C=C/c2cccnc2)cc1 [Epidaza]	437	461	444	467	> 500	466	482	492	426	448	395
CCc1c2c(nc3ccc(O)cc13)-c1cc3c(c(=O)n1C2)COC(=O)[C@]3(O)CC [SN-38 (Irinotecan)]	200	312	156	189	251	156	178	173	162	266	173
Cc1cc(-c2ncc(CC(=O)Nc3ccc(-c4cnccn4)cn3)cc2C)ccn1 [LGK974]	475	494	499	497	489	> 500	492	491	477	497	474
CN[C@@H](C)C(=O)N[C@H]1CN(C(=O)CC(C)C)CC[C@H]2CC[C@@H](C(=O)NC(c3ccccc3)c3ccccc3)N2C1=O [Xevinapant]	454	301	> 500	489	496	351	> 500	> 500	498	484	445
C[C@@H](NC(=O)c1ncnc(N)c1Cl)c1ncc(C(=O)Nc2cc(C(F)(F)F)c(Cl)cn2)s1 [TAK-580]	> 500	> 500	449	> 500	> 500	> 500	> 500	> 500	485	> 500	433
CC(C)(O)CNc1nc(Nc2ccnc(C(F)(F)F)c2)nc(-c2cccc(C(F)(F)F)n2)n1 [Enasidenib]	> 500	> 500	> 500	> 500	> 500	> 500	> 500	> 500	> 500	> 500	> 500
CC1(C)CCC(c2ccc(Cl)cc2)=C(CN2CCN(c3ccc(C(=O)NS(=O)(=O)c4ccc(N[C@H](CCN5CCOCC5)CSc5ccccc5)c(S(=O)(=O)C(F)(F)F)c4)cc3)CC2)C1 [Navitoclax]	423	423	425	433	321	326	421	423	409	414	335
CCc1cc2c(cc1N1CCC(N3CCOCC3)CC1)C(C)(C)c1[nH]c3cc(C#N)ccc3c1C2=O [Alectinib]	> 500	479	499	499	496	452	> 500	> 500	473	498	> 500
CC(=O)O[C@@]12CO[C@@H]1C[C@H](O)[C@@]1(C)C(=O)[C@H](O)C3=C(C)[C@@H](OC(=O)[C@H](O)[C@@H](NC(=O)OC(C)(C)C)c4ccccc4)C[C@@](O)([C@@H](OC(=O)c4ccccc4)[C@H]21)C3(C)C [Docetaxel]	175	248	195	255	401	101	267	203	171	179	134
CC(C)(C)c1cc(NC(=O)Nc2ccc(-c3cn4c(n3)sc3cc(OCCN5CCOCC5)ccc34)cc2)no1 [Quizartinib]	432	484	489	471	494	> 500	> 500	489	485	> 500	474
Cc1cc(C)cc(C(=O)NOCCCCCC(=O)NO)c1 [LMK-235]	365	413	378	418	428	407	411	426	379	404	395
CC(C)C[C@H](NC(=O)CNC(=O)c1cc(Cl)ccc1Cl)B(O)O [Ixazomib]	247	321	261	278	287	256	282	294	264	282	246
CC(C)C[C@H](NC(=O)[C@H](Cc1ccccc1)NC(=O)c1cnccn1)B(O)O [Bortezomib]	173	193	191	170	207	133	200	210	182	179	189
CN/N=N/c1[nH]cnc1C(N)=O [MTIC]	> 500	> 500	> 500	> 500	> 500	> 500	> 500	> 500	443	> 500	445
COc1ccc(-c2nc(N3CCOCC3)c3sc(CN(C)c4ncc(C(=O)NO)cn4)cc3n2)cn1 [Fimepinostat]	158	237	166	255	296	161	255	235	167	236	169
C=CC(=O)N1CC[C@H](n2nc(C#Cc3cc(OC)cc(OC)c3)c3c(N)ncnc32)C1 [Futibatinib]	323	425	> 500	> 500	482	236	> 500	> 500	370	372	440

Compound	area under the viability dose-response curve [1]	area under the viability dose-response curve [2]	area under the viability dose-response curve [3]	area under the viability dose-response curve [4]	area under the viability dose-response curve [5]	area under the viability dose-response curve [6]	area under the viability dose-response curve [7]	area under the viability dose-response curve [8]	area under the viability dose-response curve [9]	area under the viability dose-response curve [10]	area under the viability dose-response curve [11]
N#CC[C@H](C1CCCC1)n1cc(-c2ncnc3[nH]ccc23)cn1 [Ruxolitinib]	487	440	491	478	> 500	462	> 500	490	487	> 500	492
Nc1ncn([C@H]2C[C@H](O)[C@@H](CO)O2)c(=O)n1 [Decitabine (Guadecitabine)]	461	477	440	466	478	453	487	455	392	485	375
CC(=O)O[C@H]1C(=O)[C@@]2(C)[C@H]([C@H](OC(=O)c3ccccc3)[C@]3(O)C[C@H](OC(=O)[C@H](O)[C@@H](NC(=O)c4ccccc4)c4ccccc4)C(C)=C1C3(C)C)[C@]1(OC(C)=O)CO[C@@H]1C[C@@H]2O [Paclitaxel]	174	229	211	222	312	145	250	179	215	196	179
Nc1ccn([C@@H]2O[C@H](CO)[C@@H](O)[C@@H]2O)c(=O)n1 [Cytarabine]	425	433	403	393	479	370	427	378	377	425	481
CC(C)NC[C@@H](C(=O)N1CCN(c2ncnc3c2[C@H](C)C[C@H]3O)CC1)c1ccc(Cl)cc1 [Ipatasertib]	437	433	496	495	434	436	483	445	442	456	433
CO[C@H]1C[C@@H]2CC[C@@H](C)[C@@](O)(O2)C(=O)C(=O)N2CCCC[C@H]2C(=O)O[C@H]([C@H](C)C[C@@H]2CC[C@@H](OC(=O)C(C)(CO)CO)[C@H](OC)C2)CC(=O)[C@H](C)/C=C(\C)[C@@H](O)[C@@H](OC)C(=O)[C@H](C)C[C@H](C)/C=C/C=C/C=C/1C [Temsirolimus]	341	406	469	471	493	280	475	496	342	373	339
NC1(c2ccc(-c3nc4ccn5c(=O)[nH]nc5c4cc3-c3ccccc3)cc2)CCC1 [MK-2206]	377	440	462	473	431	371	459	427	395	415	445
Cc1cccc(-c2nn3c(c2-c2ccnc4ccc(C(N)=O)cc24)CCC3)n1 [Galunisertib]	> 500	482	493	> 500	> 500	> 500	> 500	481	> 500	493	465
Cc1sc2c(c1C)C(c1ccc(Cl)cc1)=N[C@@H](CC(=O)Nc1ccc(O)cc1)c1nnc(C)n1-2 [Birabresib]	395	399	354	461	473	358	482	478	318	410	390
C[C@@H]1COCCN1c1cc(=O)n2c(n1)N(Cc1cncc(Cl)c1)[C@H](C(F)(F)F)CC2 [SAR405]	496	474	490	> 500	489	479	454	> 500	467	497	> 500
O=c1cc(CN2CCOCC2)occ1OCCCCCSc1ccnc2cc(C(F)(F)F)ccc12 [EHT 1864]	454	490	475	477	468	371	490	488	456	481	375
C[C@H](NC(=O)Cc1cc(F)cc(F)c1)C(=O)N[C@@H]1C(=O)N(C)c2ccccc2-c2ccccc21	430	493	472	478	456	406	441	497	388	472	392
COCC[n+]1c2c(n(Cc3cnccn3)c1C)C(=O)c1ccccc1C2=O [Sepantronium bromide]	331	316	427	312	429	241	408	286	395	337	348
CN(C)C/C=C/C(=O)Nc1ccc(C(=O)Nc2cccc(Nc3ncc(Cl)c(-c4c[nH]c5ccccc45)n3)c2)cc1 [THZ1]	281	241	314	371	410	223	435	343	276	291	256
C=CC(=O)Nc1cc(Nc2nccc(-c3cn(C)c4ccccc34)n2)c(OC)cc1N(C)CCN(C)C [Osimertinib]	448	423	442	468	490	378	380	449	364	424	335
COc1ccc(Cn2ccc3ccc(C(=O)NO)cc32)cc1	475	452	488	484	474	452	483	487	472	490	454
